Consider one compound from ChEMBL document CHEMBL1649300, “Bacterial strain-to-strain variation in pharmacodynamic index magnitude, a hitherto unconsidered factor in establishing antibiotic clinical breakpoints” (2009).

In brackets after ≈: the same amount, converted by molar mass.

In test [1] the test system is Staphylococcus aureus. The test can be described thus: Antibacterial activity against Staphylococcus aureus SMH36945 by broth dilution method. Background: Dilution methods test growth across graded concentrations, often in twofold steps.
Test [2] has as its system Staphylococcus aureus. The test can be described thus: Antibacterial activity against Staphylococcus aureus SMH37390 by broth dilution method. The test is classed as functional.
Test [3] concerns Staphylococcus aureus. The test can be described thus: Antibacterial activity against Staphylococcus aureus SMH36742 by broth dilution method.
The test system of test [4] is Staphylococcus aureus. The test can be described thus: Antibacterial activity against Staphylococcus aureus SMH38004 by broth dilution method. It counts as functional.
Test [5] deals with Staphylococcus aureus. The test can be described thus: Antibacterial activity against Staphylococcus aureus SMH37312 by broth dilution method.
For test [6], the system named is Staphylococcus aureus. The test can be described thus: Antibacterial activity against Staphylococcus aureus SMH37099 by broth dilution method.
Test [7] has as its system Staphylococcus aureus. The test can be described thus: Antibacterial activity against Staphylococcus aureus SMH37276 by broth dilution method. It counts as functional.
The subject of test [8] is Staphylococcus aureus. The test can be described thus: Antibacterial activity against Staphylococcus aureus SMH36633 by broth dilution method.

For orientation: MIC means the lowest concentration that inhibits growth of the organism. A low value points to greater potency. Regarding `COc1c(N2C[C@@H]3CCCN[C@@H]3C2)c(F)cc2c(=O)c(C(=O)O)cn(C3CC3)c12` [MOXIFLOXACIN], the MIC is 2 mg/L (≈ 4.98 µM) against Staphylococcus aureus [1]; 0.04 mg/L (≈ 0.0996 µM) against Staphylococcus aureus [2]; 1 mg/L (≈ 2.49 µM) against Staphylococcus aureus [3]; 0.09 mg/L (≈ 0.224 µM) with Staphylococcus aureus [4]; 0.03 mg/L (≈ 0.0747 µM) in the test with Staphylococcus aureus [5]; 0.03 mg/L (≈ 0.0747 µM) with Staphylococcus aureus [6]. The minimum inhibitory concentration (MIC) was 0.7 mg/L (≈ 1.74 µM) with Staphylococcus aureus [7] and 0.03 mg/L (≈ 0.0747 µM) in the test with Staphylococcus aureus [8].
